# Measured values from patent US12509424B2, “Compound and composition as PDGF receptor kinase inhibitor” (NIPPON SHINYAKU CO., LTD., priority 2019, dated 2025).
# Assays:
# [1] = target: TEL-KIT fusion gene transfected cells (Ba/F3); assay: Suppression of proliferation of TEL-KIT fusion gene transfected Ba/F3 cells; conditions: read-out: KIT/BaF3 proliferation inhibition (IC50); TEL-KIT expressing Ba/F3 cells, 72 hours, final concentration 0.1 to 10,000 nM;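 also: viable cells quantified via formazan from tetrazolium reduction, inhibition scaled with 0.1% DMSO control as 0% and medium-only blank as 100%, IC50 from two-parameter logistic fit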
# Text: Fabrication of TEL-PDGFRβ and TEL-KIT Fusion Gene Transfected Cells
# Subsequently, the vectors for gene transfection were introduced using a transfection reagent (FuGENE6, Promega Corporation) into packaging cells derived from a human fetal kidney cell line, PLAT-E, in the logarithmic growth phase. Since the culture supernatant of PLAT-E after the gene transfection contained virus particles for gene transfection, it was collected and used as a medium for gene transfection. The medium for gene transfection was added to a plate coated with RetroNectin and incubated, and the virus particles were allowed to adhere to the plate. Thereafter, the mouse pro-B cell line Ba/F3 in the logarithmic growth phase was seeded onto the plate and infected with the virus to fabricate cells that proliferate in a PDGFRβ or KIT dependent manner.
# The test substance was prepared with dimethyl sulfoxide (DMSO) to 10 mM and diluted with DMSO so as to reach a concentration of 0.0001 to 3 mM. Furthermore, it was diluted by 100 times with distilled water.
# Measurement of Suppression Action Against Proliferation of TEL-PDGFRβ or TEL-KIT Expressing Cells
# The day after TEL-PDGFRβ and TEL-KIT expressing cells were seeded onto 96 well plates, the prepared test substance solution was added thereto with a final concentration being 0.1 to 10,000 nM. After 72 hours, the viable cell count was measured using the amount of formazan generated from the reduction of a tetrazolium salt compound by the mitochondrial dehydrogenase of viable cells as an indicator.
# Based on the amount of formazan in each condition, the suppression rate against cell proliferation was calculated when the amounts of formazan in the negative control (0.1% DMSO solution) and Blank (medium only) were defined as 0% and 100%, respectively. Subsequently, a nonlinear regression analysis with a two parameter logistic model for the log dose and suppression rate against cell proliferation was carried out using the SAS system (SAS Institute Inc.) to estimate the IC50 value.
# [2] = test system: pulmonary arterial smooth muscle cells; assay: Suppression of proliferation of pulmonary arterial smooth muscle cells (PDGF-BB stimulation, BrdU); type: cell-based; conditions: PASMC, 24 h; healthy human derived pulmonary arterial smooth muscle cells; human PDGF-BB 10 ng/mL stimulation; BrdU uptake after 1 day; test substance final concentration 3 to 10,000 nM; read-out: Human normal PASMC proliferation suppression (PDGF stimulation_IC50)
# Method in brief: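 Test compound (final 3 to 10,000 nM) was added together with BrdU and PDGF-BB (final 10 ng/mL) to healthy human pulmonary artery smooth muscle cells held a day in 0.1% FBS. Proliferation was read after 1 day as anti-BrdU-detected BrdU incorporation.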
# PDGFR-β = PDGFR-β (Homo sapiens (Human), UniProt P09619); assay: PDGFR-β tyrosine kinase inhibitory action (HTRF KinEASE-TK); type: biochemical; conditions: PDGFR-β enzyme 1 ng/μL, 30° C. for 30 minutes; read-out: PDGF-β IC50
# Method in brief: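 Recombinant PDGFR-β at 1 ng/μL final with TK substrate-3-biotin in a substrate solution containing 0.6 μM ATP; buffer 50 mM HEPES pH 7.0, 5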
# [3] = target: TEL-PDGFRβ fusion gene transfected cells (Ba/F3); assay: Suppression of proliferation of TEL-PDGFRβ fusion gene transfected Ba/F3 cells; type: cell-based, human; conditions: TEL-PDGFRβ expressing Ba/F3 cells, 72 hours, final concentration 0.1 to 10,000 nM; read-out: PDGFR β/BaF3 proliferation inhibition (IC50)
# Text: 2. Preparation of Test Substance
# 4. Analysis of Measurement Results
# Chain of TEL-PDGFRβ fusion gene transfected cells (Ba/F3) (P09619 33-1106 limits assumed, change not shown): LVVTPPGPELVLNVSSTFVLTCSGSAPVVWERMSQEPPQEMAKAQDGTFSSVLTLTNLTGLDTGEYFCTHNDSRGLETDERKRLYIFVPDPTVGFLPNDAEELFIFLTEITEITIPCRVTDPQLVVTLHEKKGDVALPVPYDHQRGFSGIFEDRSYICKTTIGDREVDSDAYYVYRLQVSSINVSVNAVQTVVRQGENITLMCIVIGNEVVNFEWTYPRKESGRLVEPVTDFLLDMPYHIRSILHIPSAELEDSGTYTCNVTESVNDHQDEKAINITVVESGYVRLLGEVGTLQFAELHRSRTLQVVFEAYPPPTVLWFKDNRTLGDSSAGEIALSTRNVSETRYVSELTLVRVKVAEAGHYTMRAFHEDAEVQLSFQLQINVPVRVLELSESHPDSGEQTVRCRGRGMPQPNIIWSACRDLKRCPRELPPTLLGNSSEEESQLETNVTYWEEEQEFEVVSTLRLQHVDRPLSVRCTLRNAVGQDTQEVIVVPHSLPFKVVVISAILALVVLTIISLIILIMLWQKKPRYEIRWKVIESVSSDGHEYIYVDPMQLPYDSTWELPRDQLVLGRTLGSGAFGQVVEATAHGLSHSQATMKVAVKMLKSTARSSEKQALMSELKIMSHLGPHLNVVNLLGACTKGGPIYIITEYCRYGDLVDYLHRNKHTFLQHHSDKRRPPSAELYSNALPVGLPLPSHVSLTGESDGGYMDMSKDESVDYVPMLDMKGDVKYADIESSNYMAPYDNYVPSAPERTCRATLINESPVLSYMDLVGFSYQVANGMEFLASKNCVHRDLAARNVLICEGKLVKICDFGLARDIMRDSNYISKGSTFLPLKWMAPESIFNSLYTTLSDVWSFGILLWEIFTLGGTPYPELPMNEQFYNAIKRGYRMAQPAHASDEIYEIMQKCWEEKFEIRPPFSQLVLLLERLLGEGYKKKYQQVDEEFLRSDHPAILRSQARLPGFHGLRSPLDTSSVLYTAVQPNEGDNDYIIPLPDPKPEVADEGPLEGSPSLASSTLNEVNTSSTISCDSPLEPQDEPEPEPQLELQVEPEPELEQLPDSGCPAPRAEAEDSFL
# Chain of PDGFR-β (P09619 33-1106): as the sequence (P09619 33-1106 limits assumed, change not shown) above
# Chain of TEL-KIT fusion gene transfected cells (Ba/F3) (P10721 26-976 limits assumed, change not shown): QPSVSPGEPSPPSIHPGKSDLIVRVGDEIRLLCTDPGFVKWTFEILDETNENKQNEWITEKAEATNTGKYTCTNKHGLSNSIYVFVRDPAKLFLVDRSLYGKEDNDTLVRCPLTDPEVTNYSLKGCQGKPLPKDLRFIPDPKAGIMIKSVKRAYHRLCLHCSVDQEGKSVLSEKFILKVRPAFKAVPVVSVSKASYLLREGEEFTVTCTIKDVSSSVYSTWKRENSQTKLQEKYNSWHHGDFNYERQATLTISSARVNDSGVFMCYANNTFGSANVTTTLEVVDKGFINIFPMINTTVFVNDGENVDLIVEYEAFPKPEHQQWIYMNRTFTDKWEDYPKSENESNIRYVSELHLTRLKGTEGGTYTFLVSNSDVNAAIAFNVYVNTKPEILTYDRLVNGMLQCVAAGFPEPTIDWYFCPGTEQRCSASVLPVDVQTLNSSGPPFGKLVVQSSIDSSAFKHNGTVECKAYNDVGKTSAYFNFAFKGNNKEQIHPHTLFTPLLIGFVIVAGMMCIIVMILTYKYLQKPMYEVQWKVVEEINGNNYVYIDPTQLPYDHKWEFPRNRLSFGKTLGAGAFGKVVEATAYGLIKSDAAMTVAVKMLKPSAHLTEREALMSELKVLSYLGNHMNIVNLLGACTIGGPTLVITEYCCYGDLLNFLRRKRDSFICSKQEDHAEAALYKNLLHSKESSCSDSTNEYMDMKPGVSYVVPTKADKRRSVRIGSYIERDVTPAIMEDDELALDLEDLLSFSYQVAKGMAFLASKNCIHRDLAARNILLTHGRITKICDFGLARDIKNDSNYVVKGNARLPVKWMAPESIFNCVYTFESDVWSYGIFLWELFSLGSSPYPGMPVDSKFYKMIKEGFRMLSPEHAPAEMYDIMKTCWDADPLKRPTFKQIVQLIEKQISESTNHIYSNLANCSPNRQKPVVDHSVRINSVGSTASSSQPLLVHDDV
IC50 [1] [nM],IC50 (PDGFR-β) [nM],IC50 [3] [nM],Compound,IC50 [2] [nM]
650,120,16,"Cc1c(F)cc(C(=O)N[C@H]2CCCC[C@@H]2O)cc1NC(=O)c1cnc(CC2CC2)s1 [Example 48, 2-(cyclopropylmethyl)-N-(3-fluoro-5-{[(1S,2S)-2-hydroxycyclohexyl]carbamoyl}-2-methylphenyl)-1,3-thiazole-5-carboxamide]",310
87,6.5,1.7,"Cc1ccc(C(=O)N[C@H]2CCCC[C@@H]2O)cc1C#Cc1cncc(-c2ncccn2)c1 [Example 62, N-[(1S,2S)-2-hydroxycyclohexyl]-4-methyl-3-{[5-(pyrimidin-2-yl)pyridin-3-yl]ethynyl}benzamide]",34
270,94,14,"Cc1ccc(C(=O)N[C@H]2CCCC[C@@H]2O)cc1C#Cc1ccc(N)nc1 [Example 65, 3-[(6-aminopyridin-3-yl)ethynyl]-N-[(1S,2S)-2-hydroxycyclohexyl]-4-methylbenzamide]",60
2000,80,16,"Cc1ccc(C(=O)N[C@H]2CCCC[C@@H]2O)cc1C#Cc1cncc(C2CC2)n1 [Example 68, 3-[(6-cyclopropylpyrazin-2-yl)ethynyl]-N-[(1S,2S)-2-hydroxycyclohexyl]-4-methylbenzamide]",72
300,20,1.8,"Cc1ccc(C(=O)N[C@H]2CCCC[C@@H]2O)cc1C#Cc1cncc(-c2cccc(F)c2)n1 [Example 70, 3-{[6-(3-fluorophenyl)pyrazin-2-yl]ethynyl}-N-[(1S,2S)-2-hydroxycyclohexyl]-4-methylbenzamide]",50
570,42,6,"Cc1ccc(C(=O)N[C@H]2CCCC[C@@H]2O)cc1C#Cc1cncc(-c2ccc(F)cc2)n1 [Example 71, 3-{[6-(4-fluorophenyl)pyrazin-2-yl]ethynyl}-N-[(1S,2S)-2-hydroxycyclohexyl]-4-methylbenzamide]",43
3300,190,140,"Cc1c(F)cc(C(=O)N[C@H]2CCCC[C@@H]2O)cc1Nc1cccc(-c2cccnc2)n1 [Example 81, 3-[([2,3′-bipyridin]-6-yl)amino]-5-fluoro-N-[(1S,2S)-2-hydroxycyclohexyl]-4-methylbenzamide]",110
500,19,50,"Cc1ccc(C(=O)N[C@H]2CCCC[C@@H]2O)cc1N[C@@H](C)c1cncc(-c2ccccc2)c1 [Example 84, N-[(1S,2S)-2-hydroxycyclohexyl]-4-methyl-3-{[(1S)-1-(5-phenylpyridin-3-yl)ethyl]amino}benzamide]",160
4600,180,19,"Cc1ccc(C(=O)N[C@H]2CCCC[C@@H]2O)cc1N[C@@H](C)c1cncc(-c2cccnc2)c1 [Example 85, 3-{[(1S)-1-([3,3′-bipyridin]-5-yl)ethyl]amino}-N-[(1S,2S)-2-hydroxycyclohexyl]-4-methylbenzamide]",130
1700,230,42,"Cc1ccc(C(=O)N[C@H]2CCCC[C@@H]2O)cc1N[C@@H](C)c1cncc(C#Cc2ccccc2)c1 [Example 86, N-[(1S,2S)-2-hydroxycyclohexyl]-4-methyl-3-({(1S)-1-[5-(phenylethynyl)pyridin-3-yl]ethyl}amino)benzamide]",280
9900,250,27,"Cc1ccc(C(=O)N[C@H]2CCCC[C@@H]2O)cc1N[C@@H](C)c1cncc(-c2ccncc2)c1 [Example 87, 3-{[(1S)-1-([3,4′-bipyridin]-5-yl)ethyl]amino}-N-[(1S,2S)-2-hydroxycyclohexyl]-4-methylbenzamide]",350
6000,230,43,"Cc1ccc(C(=O)N[C@H]2CCCC[C@@H]2O)cc1N[C@@H](C)c1cncc(-c2ncccn2)c1 [Example 88, N-[(1S,2S)-2-hydroxycyclohexyl]-4-methyl-3-({(1S)-1-[5-(pyrimidin-2-yl)pyridin-3-yl]ethyl}amino)benzamide]",210

# Continued, compound first:
Compound,IC50 [1] [nM],IC50 (PDGFR-β) [nM],IC50 [3] [nM],IC50 [2] [nM]
"O=C(N[C@H]1CCCC[C@@H]1O)c1ccc(Cl)c(C#Cc2cncc(Br)c2)c1 [Example 57, 3-[(5-bromopyridin-3-yl)ethynyl]-4-chloro-N-[(1S,2S)-2-hydroxycyclohexyl]benzamide]",6900,51,440,420
"O=C(N[C@H]1CCCC[C@@H]1O)c1ccc(Cl)c(C#Cc2cncc(-c3ccccc3)c2)c1 [Example 58, 4-chloro-N-[(1S,2S)-2-hydroxycyclohexyl]-3-[(5-phenylpyridin-3-yl)ethynyl]benzamide]",1800,12,110,57
"Cc1cncc(C#Cc2cc(C(=O)N[C@H]3CCCC[C@@H]3O)ccc2C)c1 [Example 59, N-[(1S,2S)-2-hydroxycyclohexyl]-4-methyl-3-[(5-methylpyridin-3-yl)ethynyl]benzamide]",500,210,27,93
"Cc1ccc(C(=O)N[C@H]2CCCC[C@@H]2O)cc1C#Cc1cncc(Br)c1 [Example 61, 3-[(5-bromopyridin-3-yl)ethynyl]-N-[(1S,2S)-2-hydroxycyclohexyl]-4-methylbenzamide]",840,41,18,18
"Cc1ccc(C(=O)N[C@H]2CCCC[C@@H]2O)cc1C#Cc1cncc(-c2cnccn2)c1 [Example 63, N-[(1S,2S)-2-hydroxycyclohexyl]-4-methyl-3-{[5-(pyrazin-2-yl)pyridin-3-yl]ethynyl}benzamide]",240,15,0.8,10
"O=C(N[C@H]1CCCC[C@@H]1O)c1ccc(Cl)c(C#Cc2cncc(-c3ncccn3)c2)c1 [Example 64, 4-chloro-N-[(1S,2S)-2-hydroxycyclohexyl]-3-{[5-(pyrimidin-2-yl)pyridin-3-yl]ethynyl}benzamide]",230,260,5.9,92
"Cc1ccc(C(=O)N[C@H]2CCCC[C@@H]2O)cc1C#Cc1cncc(-c2ccccn2)c1 [Example 66, 3-[([2,3′-bipyridin]-5′-yl)ethynyl]-N-[(1S,2S)-2-hydroxycyclohexyl]-4-methylbenzamide]",100,5.4,2.5,30
"Cc1ccc(C(=O)N[C@H]2CCCC[C@@H]2O)cc1C#Cc1cncc(C2CC2)c1 [Example 67, 3-[(5-cyclopropylpyridin-3-yl)ethynyl]-N-[(1S,2S)-2-hydroxycyclohexyl]-4-methylbenzamide]",300,43,5.2,120
"Cc1ccc(C(=O)N[C@H]2CCCC[C@@H]2O)cc1C#Cc1cncc(-c2ccccc2F)n1 [Example 69, 3-{[6-(2-fluorophenyl)pyrazin-2-yl]ethynyl}-N-[(1S,2S)-2-hydroxycyclohexyl]-4-methylbenzamide]",330,25,5.8,61
"Cc1ccc(C(=O)N[C@H]2CCCC[C@@H]2O)cc1Nc1ccnc(-c2cccnc2)n1 [Example 78, N-[(1S,2S)-2-hydroxycyclohexyl]-4-methyl-3-{[2-(pyridin-3-yl)pyrimidin-4-yl]amino}benzamide]",570,51,27,150
"Cc1ccc(C(=O)N[C@H]2CCCC[C@@H]2O)cc1Nc1ccnc(-c2cncc3ccccc23)n1 [Example 79, N-[(1S,2S)-2-hydroxycyclohexyl]-3-{[2-(isoquinolin-4-yl)pyrimidin-4-yl]amino}-4-methylbenzamide]",2000,120,46,170
"Cc1ccc(C(=O)N[C@@H](CO)[C@@H](O)c2ccccc2)cc1Nc1ccnc(-c2cncc3ccccc23)n1 [Example 80, N-[(1S,2S)-1,3-dihydroxy-1-phenylpropan-2-yl]-3-{[2-(isoquinolin-4-yl)pyrimidin-4-yl]amino}-4-methylbenzamide]",> 10000,120,80,280
"Cc1ccc(C(=O)N[C@H]2CCCC[C@@H]2O)cc1N[C@@H](C)c1cncc(-c2ccccn2)c1 [Example 89, 3-{[(1S)-1-([2,3′-bipyridin]-5′-yl)ethyl]amino}-N-[(1S,2S)-2-hydroxycyclohexyl]-4-methylbenzamide]",610,78,20,190
"C[C@H](Nc1cc(C(=O)N[C@H]2CCCC[C@@H]2O)ccc1Cl)c1cncc(-c2cccnc2)c1 [Example 90, 3-{[(1S)-1-([3,3′-bipyridin]-5-yl)ethyl]amino}-4-chloro-N-[(1S,2S)-2-hydroxycyclohexyl]benzamide]",8300,310,35,360
